According to patent US20140363425A1, “SYSTEMS AND METHODS FOR I[…] HAVING ACTIVATED PR[…]” (priority 2013, published 2014):

Tests used:
AB32 cells = experiment: Whole genome gene expression microarray in AB32 cells; format: cell-based, human; details: 10 nM, 2, 6 and 24 h
Description: (§1) Total RNA was isolated using RNAqueous purification columns (Invitrogen). Total RNA (500 ng) was amplified and biotin labelled using Illumina TotalPrep reagents (Invitrogen). The amplified samples (750 ng) were hybridized to human whole genome HT-12 gene expression bead arrays using the recommended Illumina reagents and following the manufacturer's protocol. Raw data were analysed using Genome Studio software (Illumina). After background subtraction data and cubic spline normalization, differential expression p values were determined using the Illumina custom model of Genome Studio. Data were further analysed using Microsoft Excel and SPSS statistical software. Hierarchical clustering and self organizing map clustering were performed using GenePattern.
In reference to FIG. 3B, T-47D and AB32 cells were treated with 10 nM ORG2058 (ORG) or vehicle for 2, 6 and 24 h. Transcript expression was measured by whole genome microarray. Genes that were differentially expressed in ORG2058 treated samples relative to the untreated control at one or more time point in T-47D or AB32 cells were compared by unsupervised hierarchical cluster analysis. Red—increased expression, green—decreased expression relative to vehicle treated control.
In reference to FIG. 10, progestin regulated transcripts were identified in AB32 cells at 2, 6 and 24 h treatment with 10 nM ORG2058 by gene expression profiling. […]

PR [1] = molecular target: T1, PR (Homo sapiens, UniProt P06401); format: cell-based; parameters: endogenous in cells; host or cells: T-47D; details: T-47D breast cancer cells, 10 nM, 45 minutes, false discovery rate 0.27%
T1 sequence (P06401 1-933): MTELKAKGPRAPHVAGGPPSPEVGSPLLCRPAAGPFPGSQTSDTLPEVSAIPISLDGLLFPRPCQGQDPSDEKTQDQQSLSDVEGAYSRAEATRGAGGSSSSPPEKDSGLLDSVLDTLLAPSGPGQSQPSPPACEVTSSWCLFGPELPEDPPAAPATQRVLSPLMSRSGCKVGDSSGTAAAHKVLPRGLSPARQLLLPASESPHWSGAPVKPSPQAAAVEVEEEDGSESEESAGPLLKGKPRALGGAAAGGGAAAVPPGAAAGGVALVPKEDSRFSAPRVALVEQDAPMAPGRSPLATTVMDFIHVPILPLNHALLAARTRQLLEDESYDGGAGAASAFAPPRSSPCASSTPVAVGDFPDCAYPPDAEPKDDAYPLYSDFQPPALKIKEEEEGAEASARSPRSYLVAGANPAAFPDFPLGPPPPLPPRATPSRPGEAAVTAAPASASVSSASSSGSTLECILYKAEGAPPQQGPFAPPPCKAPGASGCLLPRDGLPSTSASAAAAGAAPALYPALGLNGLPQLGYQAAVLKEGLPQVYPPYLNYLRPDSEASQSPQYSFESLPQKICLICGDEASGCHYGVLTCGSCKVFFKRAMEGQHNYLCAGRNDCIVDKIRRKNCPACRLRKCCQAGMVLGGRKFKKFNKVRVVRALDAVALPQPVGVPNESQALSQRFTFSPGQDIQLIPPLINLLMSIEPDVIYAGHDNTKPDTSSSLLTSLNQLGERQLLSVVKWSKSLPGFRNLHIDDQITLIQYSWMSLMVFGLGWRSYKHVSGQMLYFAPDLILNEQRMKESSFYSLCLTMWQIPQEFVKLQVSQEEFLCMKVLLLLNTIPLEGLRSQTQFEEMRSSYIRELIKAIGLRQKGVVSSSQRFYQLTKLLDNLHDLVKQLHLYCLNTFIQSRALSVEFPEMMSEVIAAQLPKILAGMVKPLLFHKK
Description: (§2) In one aspect, PR genomic interactions were mapped in T-47D breast cancer cells and in the AB32 cell line: a stable PR expressing clone of the MCF-10A immortalized normal breast cell line. Cells were treated with the progestin ORG2058 (10 nM, 45 minutes), followed by PR-chromatin immunoprecipitation (ChIP) and Illumina sequencing. Sequences were aligned to the human genome and genomic regions enriched in the alignments were identified using the Bowtie and ERANGE [38] software tools (false discovery rate 0.27%).
(§3) Cells were cultured to 80% confluency in 15 cm tissue culture dishes, then treated for 45 minutes with 10 nM ORG2058 or vehicle. Chromatin was subsequently cross-linked by the addition of formaldehyde to the culture medium to a final concentration of 1% and incubation for 10 minutes at 37° C. Media were immediately removed and the cells were washed with cold phosphate buffered saline and harvested by scraping. Cells were collected by centrifugation and pellets were lysed 10 minutes at 4° C. in SDS buffer (1% SDS; 10 mM EDTA; 50 mM Tris-HCl, pH 8). The lysates were sonicated at 4° C. with a Branson 450 sonicator, using seven one minute bursts at 40% amplitude and 60% duty, each separated by a rest of at least one minute. Lysates were centrifuged at 13,000×g at 4° C. for 15 minutes to remove debris. […]

PR [2] = format: cell-based, human; details: AB32 cells (PR expressing clone of MCF-10A), 10 nM, 45 minutes, false discovery rate 0.27%
Description: as §2, §3

T-47D cells = experiment: Whole genome gene expression microarray in T-47D cells; format: cell-based, human; details: 10 nM, 2, 6 and 24 h, self-organizing map clustering
Description: as §1
(A and B) Overlap between PR binding regions and progestin regulated genes in (A) T-47D and (B) AB32 cells. (C and D) PR binding regions within 10 kb or in the 5′-UTR of genes regulated at 2, 6 and 24 h in (C) T-47D and (D) AB32 cells. (E) Genes with patterns of progestin regulation in T-47D cells that grouped together were identified by SOM cluster analysis using Gene Pattern. […]
In reference to FIG. 3B, T-47D and AB32 cells were treated with 10 nM ORG2058 (ORG) or vehicle for 2, 6 and 24 h. Transcript expression was measured by whole genome microarray. […]

PR [3] = molecular target: T1, PR; details: cited from earlier work

Row | Compound | direction of transcript regulation (AB32 cells) | peaks of PR binding identified (PR [1]) | PR binding regions detected (PR [2]) | cluster of transcripts decreased at all time points, beginning to return toward basal levels at 24 h (T-47D cells) | dissociation from PR compared with ORG2058 (PR [3])
1 | CC[C@@H]1C[C@H]2[C@@H]3CCC4=CC(=O)CC[C@@H]4[C@H]3CC[C@]2(C)[C@H]1C(=O)CO [ORG2058, (8R,9S,10R,13S,14S,16R,17S)-16-ethyl-17-(2-hydroxyacetyl)-13-methyl-2,6,7,8,9,10,11,12,14,15,16,17-dodecahydro-1H-cyclopenta[a]phenanthren-3-one] | more transcripts were decreased than increased | 6312 | 8117 | 26 | 
2 | CC(=O)[C@H]1CC[C@H]2[C@@H]3CCC4=CC(=O)CC[C@]4(C)[C@H]3CC[C@]12C [progesterone] |  |  |  |  | dissociates from PR more rapidly
